Here are results for one substance from US20080311589A1, “METHOD OF HIGH-THROUGHPUT SCREENING OF MOLECULES AND COMPOUNDS FOR THEIR EFFECTS ON BIOLOGICAL AND CHEMICAL PROCESSES” (priority 1999, published 2008).

Entries after “also recorded” stand apart in the source; their conditions may differ.

The test system of one assay is phosphorylated nucleolin. As to the kind of experiment: anti-phosphonucleolin (TG-3) cytoblot screen. In kind it is cell-based, human. The method, then:
A detection assay providing an indirect measure of the mitotic index of a population of cells was used to identify compounds that act as cell cycle inhibitors. By measuring the level of phosphorylation of a chromatin-associated protein using the anti-phosphonucleolin (TG-3) cytoblot (Stockwell et al. 1999), nucleolin the mitotic index (i.e., the number of cell in mitosis) was assessed. In brief, the library compounds were dissolved in DMSO (5 mg/ml) and pin-transferred from 384-well plates (Library plates #1-51) for a final concentration 5-10 ug/ml using a 384-polypropylene pin array (Genetix) into 384-well screening plates (Nunc) seeded with 4,000 A549 human lung carcinoma cells (ATCC) in DMEM+ and incubated for 22 hours at 37° C. with 5% CO2. Compounds from library plates #1-24 were pooled at two compounds per well, while compounds from library plates #25-51 were tested singly. […] The reactivity of the anti-phosphonucleolin antibody was measured using enhanced chemiluminescent detection (Amersham) after incubation of each well with a horseradish peroxidase-coupled anti-mouse IgM secondary antibody (Sigma) and addition of luminol. The relative luminescence produced from each well was measured on an automatic plate reader (LJL Analyst). […]

A further assay has as its target T1, conventional kinesin (Homo sapiens, UniProt P33176).
T1 sequence (P33176 1-963): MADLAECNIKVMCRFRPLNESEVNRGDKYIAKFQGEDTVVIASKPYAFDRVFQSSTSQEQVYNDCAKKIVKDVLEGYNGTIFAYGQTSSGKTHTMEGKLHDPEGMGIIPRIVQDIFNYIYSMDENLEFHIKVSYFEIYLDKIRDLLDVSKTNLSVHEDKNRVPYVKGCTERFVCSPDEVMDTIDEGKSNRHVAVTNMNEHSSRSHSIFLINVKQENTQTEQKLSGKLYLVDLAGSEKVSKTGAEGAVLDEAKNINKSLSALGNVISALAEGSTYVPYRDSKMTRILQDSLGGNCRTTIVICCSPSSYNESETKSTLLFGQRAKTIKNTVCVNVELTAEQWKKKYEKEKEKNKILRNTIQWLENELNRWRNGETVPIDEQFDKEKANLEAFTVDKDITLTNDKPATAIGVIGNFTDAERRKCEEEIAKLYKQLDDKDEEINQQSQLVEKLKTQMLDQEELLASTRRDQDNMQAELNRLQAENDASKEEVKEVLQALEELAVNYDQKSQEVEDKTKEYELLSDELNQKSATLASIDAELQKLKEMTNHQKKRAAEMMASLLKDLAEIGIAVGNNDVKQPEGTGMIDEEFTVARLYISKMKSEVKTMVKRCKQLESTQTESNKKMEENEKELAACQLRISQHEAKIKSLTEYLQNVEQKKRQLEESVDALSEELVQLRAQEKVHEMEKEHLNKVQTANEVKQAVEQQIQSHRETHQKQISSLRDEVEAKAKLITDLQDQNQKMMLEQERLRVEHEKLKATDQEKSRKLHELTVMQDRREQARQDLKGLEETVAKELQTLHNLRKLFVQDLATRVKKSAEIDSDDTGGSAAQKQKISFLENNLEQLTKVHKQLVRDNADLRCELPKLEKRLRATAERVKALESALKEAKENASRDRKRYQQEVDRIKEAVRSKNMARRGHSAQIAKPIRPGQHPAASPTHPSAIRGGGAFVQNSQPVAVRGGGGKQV
Kind of assay: microtubule gliding driven by conventional kinesin. It is filed as biochemical. The note with it: 200 μM. The method, then: FIG. 26. […] Conventional kinesin motility was not inhibited in the same assay. A. Model for spindle bipolarity. Plus-end directed motors, such as Eg5 are thought to be involved in the separation of the centrosomes and the establishment of a symmetric spindle axis. B. Inhibition of the kinesin Eg5 results in monastrol spindles. Microtubules, green; chromosomes, blue. Eg5 is depicted as homotetramer (9). C. […] After imaging Eg5 driven microtubule gliding in the presence of monastrol (200 μM), the same assay chamber was depleted of compound and the microtubule gliding recorded (Washout). […] D. Chemical structures of monastrol and DHP2.
Eg5 is a member of the kinesin superfamily, which includes over 100 homologous proteins involved in organelle transport, membrane organization, and assembly and maintenance of mitotic spindles (Vale et al., Annu. Rev. Cell. Dev. Biol. 13:745, 1997). To test whether monastrol affects other motor proteins, we first assayed its ability to inhibit microtubule gliding driven by conventional kinesin in vitro. The N-terminal motor domain of conventional kinesin shares 33% sequence identity with the Eg5 motor domain (Kapoor et al., Proc. Natl. Acad. Sci. USA, 1999). […] We next investigated whether monastrol disturbs the distribution of lysosomes or the Golgi apparatus in vivo. […]

For assay [1], the system named is Golgi apparatus or lysosomes. Kind of assay: distribution of lysosomes and Golgi apparatus. In kind it is cell-based. The note with it: concentrations that caused strong spindle defects; interphase cells. From the text: We investigated the phenotype of mammalian cells (BS-C-I) treated with the compounds of group III. Live images were taken as described previously (Cramer et al., Curr. Op. Cell Biol. 6:82, 1994); for immunofluoresence, the cells were stained with a Golgi-specific antibody (anti-Golgi 58K protein antibodies [Sigma]) or with anti-α-tubulin antibodies (DM1 A [Sigma]); actin was visualized using TRIC-conjugated phalliodin (Sigma); lysosomes were stained with LysoTracker (Molecular Probes; Palmiter et al., EMBO J. 15:1784, 1996). Our examination of the distribution of microtubules, actin, and chromatin in fixed cells by fluorescence microscopy allowed us to divide the small molecules into three classes. Twenty-seven had no observable effect on the microtubule and actin cytoskeleton or on cheomosome distribution. Consistent with the data from the cytoblot assay we observed an increase in the number of normal appearing mitotic cells. These compounds may increase the mitotic index by perturbing the function of proteins that regulate progression through the cell cycle, e.g., anaphase regulators, rather than structural or mechanochemical components of the mitotic spindle. It is also possible that these compounds have a subtle effect on cytoskeletal dynamics or chromosome organization that may not be observable in fixed cells. […]

monastrol displayed an EC50 (effective concentration) in the cytoblot assay with phosphorylated nucleolin of 22 µM. In addition, the “inhibition of microtubule gliding driven by conventional kinesin” value against conventional kinesin is given as “no inhibition; also recorded: does not inhibit”. For the same substance, the “localization and organization of Golgi apparatus or lysosomes” value in assay [1] is “did not affect localization and organization of the Golgi apparatus or lysosomes in interphase cells”.
